From patent EP4309652A1, “COMPOSITION FOR USE IN THE PREVENTION AND/OR TREATMENT OF DISEASES MEDIATED BY TLR4, IL1R, COX1/2 AND/OR RBP4” (Servizo Galego de Saúde (SERGAS), priority 2022, dated 2024)
“Also recorded” adds a separate entry of the source.

Columns and labels:
IL1R [1] = test: RT-PCR, IL1β-induced mRNA expression of LCN2, IL6 and NOS2 in ATDC5 cells; type: cell-based, murine; details: IL1β (0,5 ng/ml), 24h
Procedure: (§1) ATDC-5 cells were seeded in 12-well plates. Cells were seeded in a monolayer. After adhesion and incubation overnight in serum-free conditions (starvation), ATDC5 cells were stimulated for 24 h with LPS [100 ng/ml] or IL-1β [0,5 ng/ml] in the presence or absence of the compounds of the invention [10-100 µM].
(§2) RNA was extracted using E.Z.N.A solation reagent (Omega) according to manufacturer's protocol. Relative quantitation was performed using the ΔΔC Comparative Method and the MxPro software (Stratagene, CA, USA) as the ratio of each gene to the expression of the housekeeping gene. Data are shown as mean ± S.E.M (error bars) of at least three independent experiments and represented as fold-change vs. controls.

ATDC5 cells = test: Nitrite assay (Griess reaction), NO production; type: cell-based, murine; details: LPS (100 ng/ml) or IL1B (0,5 ng/ml), 24h
Procedure: ATDC-5 cells were seeded in 12-well plates. Cells were seeded in a monolayer. After adhesion and incubation overnight in serum-free conditions (starvation), ATDC5 cells were stimulated for 24 h with LPS [100 ng/ml] or IL-1β [0,5 ng/ml] in the presence or absence of the compounds of the invention [10-100 µM]. As described above, 1×10^5 ATDC5 cells were seeded and treated for 24 h. Nitrite accumulation was determined in the culture medium using the Griess reaction. As previously described, after diazonium salt was dissolved, absorbance was measured at 550 nm in a microplate reader.

TLR4 [2] = test: RT-PCR, LPS-induced mRNA expression of LCN2, IL6 and NOS2 in ATDC5 cells; type: cell-based, murine; details: LPS (100 ng/ml), 24h
Procedure: as §1, §2

TLR4 [3] = test: Western blot, NOS2 protein expression in LPS-stimulated ATDC5 cells; type: cell-based, murine; details: LPS (100 ng/ml), 24h
Procedure: as §1
(§3) Whole-cell protein extraction was performed using lysis buffer (RIPA Buffer). Immunoblots were incubated with the appropriated antibodies [INOS (rabbit polyclonal antibody) diluted 1:1000 (Thermo Fisher Scientific, MA, USA), IG (anti-rabbit antibody) diluted 1:5000 (Jackson ImmunoResearch Laboratories Inc., USA), b-actin (mouse polyclonal antibody) (Thermo Fisher Scientific, MA, USA) diluted 1:6500 and IG (anti-mouse antibody) diluted 1:10000] (Jackson ImmunoResearch Laboratories Inc., USA).
(§4) Then, all immunoblots were visualized using an Immobilon Western kit (Millipore, MA, USA). Blots densitometries were generated using a ChemiDoc MP Imaging System and analysed using Image J software (National Institutes of Health, Bethesda, MD, USA).

IL1R [4] = test: Western blot, NOS2 protein expression in IL1β-stimulated ATDC5 cells; type: cell-based, murine; details: IL1β (0,5 ng/ml), 24h
Procedure: as §1, §3, §4

[5] = test system: primary human osteoarthritis chondrocytes and osteoblasts; test: RT-PCR, inflammatory and catabolic marker genes in TLR4- and IL1R-activated primary cells; type: cell-based; details: 50 µM, 24h, LPS (100 ng/ml) or IL1β (0,5 ng/ml)
Procedure: as §2
According to the results obtained in ATDC5 cells, we selected the concentration 50 µM and co-treated the primary cells with inflammatory stimuli for 24h at the same concentrations [LPS (100 ng/ml), and IL1β (0,5 ng/ml)].

RBP4 = RBP4 mRNA expression in chondrocytes; type: cell-based; details: basal or inflammatory conditions (LPS or IL1β), 50 and 100 µM of PJ
Procedure: as §2

CC(=O)OC(/C=C\C1CC=CC(=O)O1)CC(OC(C)=O)C(C)OC(C)=O (stereo not drawn) [Hyptolide]
concentration of inhibitory activity on IL1β-induced mRNA expression (IL1R [1]): 100 µM

COc1ccc2c(c1)c(CC(=O)O)c(C)n2C(=O)c1ccc(Cl)cc1 [Indomethacin, reference compound]
NO production induced by LPS and IL1β (ATDC5 cells): did not suppress; also recorded: did not significantly inhibit

CC(=O)OC(/C=C\C1OC(=O)C=CC1OC(C)=O)CC(OC(C)=O)C(C)OC(C)=O (stereo not drawn) [Pectinolide E]
concentration of inhibitory activity on IL1β-induced mRNA expression (IL1R [1]): 50 µM

CC(=O)OC(/C=C\C1OC(=O)C=CC1O)CC(OC(C)=O)C(C)OC(C)=O (stereo not drawn) [Pectinolide J]
NO production induced by LPS and IL1β (ATDC5 cells): maximum inhibitory activity
concentration of maximum inhibitory activity on induced NO production (ATDC5 cells): 10 to 25 µM
LPS-induced mRNA expression of LCN2, IL6 and NOS2 (TLR4 [2]): highest anti-inflammatory activity
IL1β-induced expression of LCN2, IL6 and NOS2 (IL1R [1]): maximum inhibitory activity
concentration of inhibitory activity on IL1β-induced mRNA expression (IL1R [1]): 10 µM
NOS2 protein expression (250 kDa dimer), LPS-induced (TLR4 [3]): highest reduction of NOS2 expression
NOS2 protein expression (250 kDa dimer), IL1β-induced (IL1R [4]): highest reduction of NOS2 expression
inflammatory and catabolic marker genes (LCN2, NOS2, IL6, MMP3) induced by the inflammatory stimuli [5]: maximum anti-inflammatory activity
RBP4 mRNA expression (RBP4): downregulates
